Results on eleven molecules are retold here after publication PMC12186257, “Serendipitous and Systematic Chemoproteomic Discovery of MBLAC2, HINT1, and NME1‑4 Inhibitors from Histone Deacetylase-Targeting Pharmacophores” (ACS Chemical Biology, 2025).

One assay deals with T1, MBLAC2 (Homo sapiens, UniProt Q68D91).
T1 construct: incubated at increasing concentrations with a mixture of lysates of MV4–11 and SW620 cells; endogenous in cells; host or cells: mixed lysate of MV4-11 and SW620 cells
T1 sequence (Q68D91 1-279): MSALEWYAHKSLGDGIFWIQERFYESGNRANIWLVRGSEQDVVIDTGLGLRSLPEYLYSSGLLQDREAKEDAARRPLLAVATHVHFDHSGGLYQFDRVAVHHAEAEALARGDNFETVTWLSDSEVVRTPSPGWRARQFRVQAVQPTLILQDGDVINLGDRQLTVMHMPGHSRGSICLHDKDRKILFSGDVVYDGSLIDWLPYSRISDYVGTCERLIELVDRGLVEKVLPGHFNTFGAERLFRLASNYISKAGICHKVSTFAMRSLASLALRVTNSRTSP
Put plainly: chemoproteomic competition assay (MV4-11/SW620 lysate, iA/iC/iQ beads, MS readout). The settings on record: for MBLAC2 binding / Kd: nine-dose competition assay; for EC50: focused library profiling; for Kd: read-out: KDapp MBLAC2. The class given is binding. Here is the method: (§1) MBLAC2 is a metalloenzyme predicted to harbor one or two Zn^2+ ions in its active site. […] In this assay, compounds of interest are incubated at increasing concentrations with a mixture of lysates of MV4–11 and SW620 cells. The compound-treated lysates are then mixed with bead-immobilized hydroxamic acid-containing compounds iA, iC, and iQ (immobilized Quisinostat), which pull down compound-binding proteins such as HDACs, MBLAC2, ISOC1/2, ALDH2, and GATD3A (Figure a) that can be identified and quantified by mass spectrometry (MS). Proteins targeted by the library compounds in a preincubation step are prevented from being pulled down by the immobilized probes, leading to a dose-dependent reduction in MS signal. Initially, 12 metal-chelating compounds were profiled at two concentrations (10 μM and 100 μM) (Figure S3).
(§2) Chemoproteomic competition assays
Sample preparation. For the MBLAC2 and HDAC inhibitor competition assay, the generation of affinity matrices, lysate generation, pulldown assay, and sample preparation were performed as described in […]
detail in REF1. […]
(§3) LC-MS/MS. The different sample types were measured with different LC-MS/MS settings. MBLAC2 2-dose competition assays were measured with the Lumos1 setup, MBLAC2 9-dose competition assays were measured with the Lumos2 setup, and kinobeads assays were measured with the Eclipse setup.
(§4) Peptides were analyzed via LC–MS/MS on a Dionex Ultimate3000 nano HPLC coupled to either one of two Orbitrap Fusion Lumos mass spectrometers, or to an Orbitrap Eclipse mass spectrometer, operated via the Thermo Scientific Xcalibur software.
(§5) In the all setups, peptides were loaded on a trap column (100 μm × 2 cm, packed in-house with Reprosil-Gold C18 ODS-3 5 μm resin, Dr. Maisch, Ammerbuch) and washed with 5 μL/min solvent A (0.1% formic acid in HPLC grade water) for 10 min. Peptides were then separated on an analytical column (75 μm × 40 cm, packed in-house with Reprosil-Gold C18 3μm resin, Dr. Maisch, Ammerbuch) using a 50 min gradient ranging from 4 to 32% solvent B (0.1% formic acid, 5% DMSO in acetonitrile) in solvent A (0.1% formic acid, 5% DMSO in HPLC grade water) at a flow rate of 300 nL/min.
(§6) The mass spectrometers were operated in data-dependent mode, automatically switching between MS1 and MS2 spectra. MS1 spectra were acquired over a mass-to-charge (m/z) range of 360–1300 m/z at a resolution of 60,000 (at m/z 200) in the Orbitrap using a maximum injection time of 50 ms and an automatic gain control (AGC) target value of 4e5.
(§7) In Lumos settings, up to 12 peptide precursors were isolated in (isolation width of 1.2 Th for Lumos1 and 1.7 for Lumos2, maximum injection time of 75 ms, AGC value of 1e5 for Lumos1 and 2e5 for Lumos2), fragmented by HCD using 30% normalized collision energy (NCE) and analyzed in the Orbitrap at a resolution of 15,000 (Lumos2) or 30,000 (Lumos1). The dynamic exclusion duration of fragmented precursor ions was set to 20 s (Lumos1) or 30 s (Lumos2). In Eclipse measurements, a cycle time of 2 s was chosen. Peptides were isolated in the quadrupole with an isolation offset of 1.2 (isolation width of 1.2 Th, maximum injection time of 54 ms, AGC target of 200%) and fragmented by HCD with an NCE of 30% and analyzed in the Orbitrap at a resolution of 30,000. The dynamic exclusion on the Eclipse was set to 20 s.
Data analysis. The data analysis of MBLAC2/HDAC inhibitor competition assays was performed as described in detail in REF1. LFQ intensity values were used for the calculation of relative residual binding to the affinity matrix. […]

Assay [1] has as its system cell proliferation or fitness. The assay is described as follows: alamar blue cell metabolic activity assay with MBLAC2 inhibitors. The settings on record: 72h, five concentrations. It counts as cell-based. The text has this:
Our earlier observation that MBLAC2 inactivation leads to the upregulation of extracellular vesicles (EVs), combined with evidence of MBLAC2’s association with late endosomes and membrane processes, , prompted us to hypothesize that MBLAC2 inactivation might impair endocytosis. To test this hypothesis, we measured clathrin-mediated endocytosis of fluorescently labeled transferrin (TF) in the presence and absence of MBLAC2 inhibitors. […] Thus, the precise biological roles of MBLAC2 remain elusive. However, we anticipate that the selective compounds identified in this study will serve as valuable tools for elucidating the cell biological functions of MBLAC2 in future research.
Fig. S6| Characterization of MBLAC2 inhibitors. a, 9-dose competition assay of MBLAC2 selective inhibitors KV-65 and KV-79. b, Impact of MBLAC2i on cell metabolic activity assessed in an alamar blue assay. Cells were treated in triplicates with five concentrations of MBLAC2i and a DMSO vehicle control for 72h. c, Clathrin-mediated endocytosis assay based on measurement of fluorescent transferrin uptake. Dynasore and Pitstop-2 serve as positive controls. HeLa cells were pre-incubated with 100 µM Dynasore, 2 µM KV65, or 2 µM KV79 for 20 h before the microscopy readout. 30 µM Pitstop-2 was added only for 15 min before readout. […]

The next assay has as its system HeLa cells. The assay is described as follows: clathrin-mediated endocytosis of fluorescently labeled transferrin. The class given is cell-based. To be noted: HeLa cells, 2 µM, 20 h.
In assay [2] the test system is compound-binding proteins such as HDACs, MBLAC2, ISOC1/2, ALDH2, and GATD3A. Put plainly: chemoproteomic competition assay, proteome-wide target binding profile. The settings on record: dose-dependent competition. Details: species or system human. As to the method:
as §1, §2
Sample preparation. For the MBLAC2 and HDAC inhibitor competition assay, the generation of affinity matrices, lysate generation, pulldown assay, and sample preparation were performed as described in detail in REF1. For the kinobeads assay, the generation of affinity matrices, lysate generation, pulldown assay, and sample preparation were performed as described in detail in REF2.
as §3, §4, §5, §6
as §7, with “HCD with an NCE of 30% and analyzed in the Orbitrap at a resolution of 30,000. The dynamic exclusion on the Eclipse was set to 20 s.” left out

Assay [3] addresses recombinant HINT1 (hHint1) (Homo sapiens, UniProt P49773). Put plainly: HINT1 enzyme activity assay (TrpA hydrolysis, fluorescence). The settings on record: hHint1 0.002 µM, TrpA 0.5 µM, 25 °C. The class given is biochemical. The text has this:
While the biologically relevant substrates of HINT1 have not been clearly elucidated, the protein has been implicated in opioid receptor signaling, − regulation of the melanoma-associated transcription factor MITF, , and DNA damage repair. These functions position HINT1 as a potential pharmacological target for treating conditions such as opioid resistance or melanoma. The only reported HINT1-targeting pharmacophores are nucleoside-based nonhydrolyzable substrate analogs, such as the carbamate TrpGC (Figure a). , We evaluated the inhibitory potential of KV-24 and KV-30 in enzyme activity assays using recombinant HINT1. […] This discrepancy could be attributed to reduced affinity for the recombinant enzyme due to the absence of post-translational modifications (PTMs), cofactors, or interaction partners that enhance drug binding. Alternatively, it might result from substrate dilution in the lysate, whereas high substrate concentrations in the enzyme activity assay require the inhibitor to compete more effectively.
Mouse brain proteomics – LC-MS/MS. Proteome analysis of brain mouse tissue samples was performed on a micro-flow LC timsTOF HT setup described in detail in REF14. Liquid chromatography in micro-flow mode was performed on a Vanquish Neo UHPLC System (Thermo Fisher Scientific) at a flow rate of 50 µL/min. […] 10 µg of peptide mix was injected and analyzed using a 58 min gradient starting at 1% B up to 45% B (1 h method). […]
Mouse proteomics data analysis. The data files were analyzed with DIA-NN 1.8.1. […] The resulting protein group tables were further analyzed by Perseus 1.6.2.2. […]
CME of transferrin and confocal microscopy analyses.For transferrin uptake experiments HeLa cells were seeded on Matrigel-coated coverslips, and incubated with 0.1 % DMSO, or with 100 µM dynasore, 20 µM KV50, 2 µM KV65, or 2 µM KV79 in media containing 10% FCS at 37°C for 20 h. […] All inhibitor treatments were performed in duplicate, to enable quantification of surface levels of transferrin receptors, and to assess the capability of transferrin receptor endocytosis. […]

For another assay, the system named is Toxoplasma gondii. Details: method as in PMID 33360687, PMID 35483428, PMID 38431113, PMID 29414107. The settings on record: in human host cells; cited from earlier work.

Chain of recombinant HINT1 (hHint1) (P49773 whole entry): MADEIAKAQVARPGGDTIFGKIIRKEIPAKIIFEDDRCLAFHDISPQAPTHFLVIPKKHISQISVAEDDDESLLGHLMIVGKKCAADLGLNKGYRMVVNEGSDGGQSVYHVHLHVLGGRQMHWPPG
Description for HeLa cells: Given that local GTP production by NME1 and NME2 is essential for fueling dynamin-driven endocytosis, we investigated the effect of KV-50-mediated NME1/2 inhibition on fluorescent transferrin (TF) uptake in cells. HeLa cells were treated with KV-50 or known endocytosis inhibitors (Pitstop-2 and Dynasore), and surface-bound and internalized fluorescent TF were quantified.

As to `O=C(NO)c1ccc(Cn2c(=O)n(CCc3ccccc3)c(=O)c3ccccc32)cc1` [Compound J22352], at MBLAC2, the “MBLAC2 binding” value is reported as “potently bound MBLAC2”.
As to `O=C(NO)c1ccc(CN2c3ccccc3Sc3ccccc32)cc1` [KV-46], it took 83 nM to reach a half-maximal effect at MBLAC2 (EC50).
`O=C(NO)c1ccc(CN2c3ccccc3S(=O)(=O)c3ccccc32)cc1` [KV-65]: the “concentration up to which cell proliferation or fitness not affected” value in assay [1] was over 10 µM. In addition, the “TF uptake” value with HeLa cells is given as “not statistically significant”. The molecule also returned an EC50 at MBLAC2 of 37 nM.
With `O=C(NO)c1ccc(CN2c3ccccc3Sc3ccc(C(F)(F)F)cc32)cc1` [KV-79], in assay [1], the “concentration up to which cell proliferation or fitness not affected” value was over 10 µM. For the same molecule, in the assay with HeLa cells, the “TF uptake” value was “not statistically significant”. The “selectivity compared to HDACs” value at MBLAC2 (abstract) is given as “over 60 fold”. On MBLAC2, this molecule came in with an EC50 of 25 nM.
Take `O=C(CCCCCCC(=O)NO)NO` [SBHA, suberoyl-bis-hydroxamic acid, reference compound]: the “targets / off-targets bound” value in assay [2] is “bind off-targets such as ISOC1/2, GATD3A, and ALDH2”.
As to `CN(CC(=O)N(Cc1ccc(C2CCCCC2)cc1)c1ccc(C(=O)NO)cc1)S(=O)(=O)c1c(F)c(F)c(F)c(F)c1F` [SH5–07], on MBLAC2, the Kd was about 800 nM.
Turning to `O=C(NO)c1ccc(CN2CCCc3cc(Cl)ccc32)cc1` [SW-100], on MBLAC2, the “MBLAC2 binding” value is “potently bound MBLAC2” and the Kd came out at 75 nM.
With `Cn1c(CCCCCCC(=O)NO)nc2cc(N(CCCl)CCCl)ccc21` [Tinostamustine, reference compound], in assay [2], the “targets / off-targets bound” value is “bind off-targets such as ISOC1/2, GATD3A, and ALDH2”.
Consider `Nc1nc2c(ncn2[C@@H]2O[C@H](COC(=O)NCCc3c[nH]c4ccccc34)[C@@H](O)[C@H]2O)c(=O)[nH]1` [TrpGC, reference compound], for which the IC50 in assay [3] amounted to 9100 nM.
Regarding `CN1CCc2c(c3ccccc3n2Cc2ccc(C(=O)NO)cc2)C1` [Tubastatin A, reference compound], the “inhibition of proliferation of protozoans” value in the assay with Toxoplasma gondii is “potently inhibit the proliferation”.
For ACY-1083, the “MBLAC2 binding” value at MBLAC2 was “potently bound MBLAC2”.
